System: dystrophin exon 23
Test: Dystrophin expression (immunostaining of muscle sections) in mdx dystrophic mice after antisense oligonucleotide PMOE23
Assay type: in vivo, mouse
Experimental: The mdx dystrophic mouse contains a nonsense point mutation in the dystrophin exon 23. PMOE23 (5′[…]-3′) (SEQ ID NO:1) oligo binds to the exon-intron boundary of the dystrophin exon 23, resulting in the skip of the exon 23 and restoration of the reading frame and the expression of the dystrophin protein. The mdx mice are treated with antisense oligonuleotide PMOE23 (5′[…]-3′) (SEQ ID NO:1) via intravenous injection and the muscles are examined 2 weeks later. Saline treated, mouse was treated with saline without PMO as control. PMO only, mouse was treated with single dose 1 mg PMO only. PMO+Repa, mouse was treated with single dose 1 mg PMO and Repaglinide. 100 microgram Repaglinide was gavaged before the injection of PMO. Quad, quadriceps. Blue are DAPI stained nuclei; red staining representing membrane localized dystrophin expression.
A comparison of levels of dystrophin expression after treatment with morpholino antisense oligonucleotide PMOE23 and Eicosapentaenoic acid (EPA)-linked PMOE23 in 4-6 weeks old mdx dystrophic mice. […] PMOE23 (5′[…]-3′) (SEQ ID NO:1) oligo binds to the exon-intron boundary of the dystrophin exon 23, resulting in the skip of the exon 23 and restoration of the reading frame and the expression of the dystrophin protein. […] 6 μm sections were cut from freshly frozen muscles and stained with rabbit anti-dystrophin antibody P7 and detected with goat-anti-rabbit Ig-Alexa 594. […] Images were taken by Olympus BX52 fluorescence microscope.
A comparison of levels of dystrophin expression after treatment with morpholino antisense oligonucleotide PMOE23 and PMOE23 in combination with the use of insulin in 4-6 weeks old mdx dystrophic mice. […] PMOE23 (5′[…]-3′) (SEQ ID NO:1) oligo binds to the exon-intron boundary of the dystrophin exon 23, resulting in the skip of the exon 23 and restoration of the reading frame and the expression of the dystrophin protein. […] 6 μm sections were cut from freshly frozen muscles and stained with rabbit anti-dystrophin antibody P7 and detected with goat-anti-rabbit Ig-Alexa 594. […] Images were taken by Olympus BX52 fluorescence microscope.

With “PMO only: morpholino antisense oligonucleotide PMOE23, 5′GGCCAAACCTCGGCTTACCTGAAAT-3′ (SEQ ID NO:1), skips dystrophin exon 23 (all phosphorodiamidate morpholino (PMO))” the “number of dystrophin positive fibers / membrane localized dystrophin expression in muscle” value (Example 1, FIG. 1: mdx mice, single dose 1 mg PMO intravenous, 100 microgram Repaglinide gavaged before PMO, muscles examined 2 weeks later) was “only a few muscle fibers expressing weak dystrophin”, the “number of dystrophin positive fibers / membrane localized dystrophin expression in muscle” value (Example 2, FIG. 2: 4-6 weeks old mdx mice, single intravenous dose 1 mg PMOE23 or 0.7 mg EPA-linked PMOE23, muscles examined 2 weeks later, antibody P7) was “only a few muscle fibers expressing weak dystrophin” and the “number of dystrophin positive fibers / membrane localized dystrophin expression in muscle” value (Example 3, FIG. 3: 4-6 weeks old mdx mice, single intravenous dose 1 mg PMOE23, 0.5 unit Insulin subcutaneously immediately after PMO, muscles examined 2 weeks later, antibody P7) was “only a few muscle fibers expressing weak dystrophin”.
